# Laboratory results as given in publication PMC12302426, “Dihydrokoumine, a dual-target analgesic with reduced side effects isolated from a traditional Chinese medicine” (Journal of Advanced Research, 2024).
# Experiments:
# [1] = Pharmacokinetics, blood-brain barrier permeability; type: in vivo, C57BL/6 male mice
# Procedure: Blood‐brain barrier permeability evaluation was as follows. C57BL/6 male mice (about 25 g) were used in evaluation of blood‐brain barrier permeability (n = 3). Mice were given a single dose of DK (20 mg/kg, 5 mL/kg, i.p.) through intraperitoneal injection. Blood (300 μL) was collected at 0.167, 0.5, 1, 2, 3 and 4 h into EDTA tubes. Plasma was obtained by mixing with acetonitrile and centrifugation (3000 r/min, 10 min). Meanwhile, brains were excised after saline perfusion at these time points. Brain samples were grinded (70 Hz, 90 s) and sonicated (30 s) to break up the tissue, followed by centrifugation (15,000 r/min, 10 min, […]) to obtain brain sample.
# Brain and plasma drug levels were measured by LC-30AD (Shimadzu Corporation Kyoto, Japan) and SCIEX QTRAP-6500 (AB Sciex, Foster City, CA, USA) and calculated by comparing with internal standard (koumine, 200 ng/mL). The used column was Waters ACQUITY UPLC BEH C18 (2.1*150 mm, 1.7 μm); the mobile phase was composed of (A) 0.1 % FA in water and (B) 0.1 % FA in ACN; the elution gradient was 20 % B (0–3 min), 20–40 % B (3–5 min), 40–95 % B (5–6 min); the flow rate was 0.3 mL/min; and detection was in the positive mode.
# M3R = molecular target: T1, M3R (Homo sapiens, UniProt P20309); assay: Radioligand binding assay, [3H] NMS; settings: [3H] NMS 0.2 nM
# T1 construct: expressed in transfected cells; host or cells: HEK293 cell membranes
# T1 sequence (P20309 whole entry): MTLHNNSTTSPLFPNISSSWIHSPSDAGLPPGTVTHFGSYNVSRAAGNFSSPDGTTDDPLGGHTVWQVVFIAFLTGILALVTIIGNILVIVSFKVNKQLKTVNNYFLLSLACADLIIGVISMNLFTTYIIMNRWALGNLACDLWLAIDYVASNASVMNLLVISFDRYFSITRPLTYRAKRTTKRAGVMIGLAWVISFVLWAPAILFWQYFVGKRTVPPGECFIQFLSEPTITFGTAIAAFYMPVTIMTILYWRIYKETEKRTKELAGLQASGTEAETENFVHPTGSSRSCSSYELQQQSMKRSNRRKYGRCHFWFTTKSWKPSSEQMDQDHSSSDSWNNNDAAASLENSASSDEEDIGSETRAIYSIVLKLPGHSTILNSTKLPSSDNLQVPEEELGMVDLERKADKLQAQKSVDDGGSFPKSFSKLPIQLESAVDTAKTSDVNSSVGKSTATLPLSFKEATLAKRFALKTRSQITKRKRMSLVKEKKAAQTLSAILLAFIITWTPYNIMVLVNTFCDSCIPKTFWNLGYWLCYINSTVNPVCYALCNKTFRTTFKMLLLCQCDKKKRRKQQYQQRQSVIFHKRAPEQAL
# Procedure: Radioligand binding assays were conducted using MicroBeta2 (PerkinElmer, USA). Membrane protein preparations MOR and M3R were each prepared at a concentration of 2.5 µg/well. The radio ligands [^3H] DAMGO (specific for MOR) and [^3H]-NMS (specific for M3R) were prepared at concentrations of 0.5 nM and 0.2 nM, respectively. […] For each well, 1 µL of the serially diluted test compounds was transferred, followed by the addition of 100 µL of membrane stock solution and 100 µL of radioligand. The plates were sealed and shaken at 300 rpm at room temperature for one hour. Upon completion of the binding assay, the contents of each well were filtered through Unifilter-96 GF/C filter plates (PerkinElmer, USA). The filter plates were dried for one hour at 50°C and sealed. The trapped ^3H (tritium) on the filters was then quantified using the MicroBeta2. The percentage of inhibition or binding was subsequently calculated.
# C57BL/6 male mice = assay: Antinociceptive tolerance, repeated injection over 7 days, hot-plate assay; type: in vivo; settings: DK 20 and 40 mg/kg daily over 7 days, compared with morphine 5 mg/kg
# Procedure: Subsequent tolerance assessment was conducted through a repeated-injection protocol employing the hot-plate assay. Mice were injected intraperitoneally (5 mL/kg) with the solvent mixture, morphine (5 mg/kg) or DK (20, 40 mg/kg) daily for a continuous seven-day period. The diminishment of the antinociception of drugs in the assay was employed to evaluate the tolerance, with latency measured one hour after drug administration throughout the week.
compound,measurement,setting,value
C=CC12CN(C)C3CC14c1ccccc1NC4C1CC2C3CO1 (stereo not drawn) [DK],Kp,"[1]; male, C57BL/6, mouse, brain/plasma, ip, 20 mg/kg, read-out: Kp (AUCbrain/AUCplasma)",1.27
same,AUC,"[1]; male, C57BL/6, mouse, ip, mice, plasma, i.p., 20 mg/kg (method), read-out: (AUC)0-4 h in plasma",0.733 µg·h/mL
same,(AUC)0-4 h in brain,"[1]; mice, brain, i.p., 20 mg/kg (method)",933.4 ng·h/g
same,Ki,M3R,55.2 ± 11 µM
same,efficacy (maximal inhibition of radioligand binding),M3R,74.6%
same,antinociceptive tolerance,C57BL/6 male mice,no antinociceptive tolerance was observed
